Results as given in BigSolDB 2.1.

O=C1C(CCS(=O)c2ccccc2)C(=O)N(c2ccccc2)N1c1ccccc1 (stereo not drawn)
solubility (mole fraction)
Conditions | 283.15 K | 288.15 K | 293.15 K | 298.15 K | 303.15 K | 308.15 K | 313.15 K | 318.15 K | 323.15 K
in 2-butanone | 0.0136 | 0.0157 | 0.0199 | 0.0241 | 0.0288 | 0.0333 | 0.0388 | 0.0495 | 0.0601
in acetone | 0.0138 | 0.0165 | 0.02 | 0.0244 | 0.0293 | 0.0371 | 0.0452 | 0.0524 | 0.0745
in acetonitrile | 0.0131 | 0.0155 | 0.0213 | 0.0265 | 0.0334 | 0.0474 | 0.0648 | 0.0799 | 0.103
in ethanol | 0.00156 | 0.00211 | 0.0027 | 0.00356 | 0.0045 | 0.00542 | 0.00719 | 0.00956 | 0.0137
in isopropanol | 0.000256 | 0.000609 | 0.00104 | 0.00204 | 0.00302 | 0.0045 | 0.00583 | 0.0071 | 0.00937
in methanol | 0.0026 | 0.00318 | 0.00401 | 0.00508 | 0.00679 | 0.00864 | 0.0114 | 0.0176 | 0.0278
in methyl acetate | 0.00978 | 0.0109 | 0.0139 | 0.0161 | 0.0195 | 0.0222 | 0.0272 | 0.0345 | 0.0485
in n-butanol | 0.00169 | 0.00245 | 0.00314 | 0.00438 | 0.00592 | 0.00724 | 0.00971 | 0.0129 | 0.0166
in n-pentanol | 0.00284 | 0.00357 | 0.00429 | 0.0053 | 0.00627 | 0.00725 | 0.00824 | 0.00921 | 0.0109
in n-propanol | 0.00198 | 0.00266 | 0.00347 | 0.00485 | 0.00617 | 0.00752 | 0.0101 | 0.0132 | 0.0183
in sec-butanol | 0.0024 | 0.00301 | 0.00388 | 0.0047 | 0.00546 | 0.00655 | 0.00876 | 0.0109 | 0.0156
in water | 3.6e-05 | 6.32e-05 | 0.000111 | 0.000176 | 0.000264 | 0.000352 | 0.000479 | 0.000615 | 0.000777
